Assay results as given in US20240108634A1, “COMPOSITIONS AND METHODS FOR INHIBITING YAP” (The United States Government as represented by the …, priority 2021, published 2024).

Target: T1, full-length YAP (Homo sapiens, UniProt P46937)
T1 construct: made in house; host or cells: bacterial (inferred)
Assay: Surface plasmon resonance of NSC682769 analyte on immobilized full-length YAP
Conditions: SPR, 25° C., read-out: Kd from steady-state binding
Procedure: FIGS. 1A-G show the identification of a YAP1-TEAD1 binding interface inhibitor. […] The Gal4 DBD was fused to residues 50-171 of human YAP1 and the Gal4 AD was fused to residues 194-411 of human TEAD1. These fusions were expressed in yeast containing reporters harboring Gal4 upstream activating sequences (UAS). […] Yeast expressing either p53-DBD and SV40 large T antigen-AD fusions or YAP1-DBD and TEAD1-AD fusions were plated on selective media. Compounds were pinned onto the plate surfaces by robotic transfer and subsequently examined for halo formation (indicated by red circles). Compounds inhibiting YAP1-TEAD1 mediated growth on selective media while having no effect on p53-T antigen mediated yeast growth were considered specific. […] Pull-down products were analyzed by SDS-PAGE and silver staining. […] Raw binding sensorgrams obtained at each concentration were fitted to a 1:1 binding model and Kon, Koff and KD were calculated by simultaneous non-linear regression analyses.
Surface plasmon resonance (SPR), ELISA, YAP-TEAD reporter activity, cellular fractionation, and immunofluorescence analyses. […] YAP-TEAD reporter activity was determined as previously described (Kim N G, Gumbiner B M (2015) J Cell Biol 210: 503-515). […] Luciferase activity was measured via a luciferase assay system (Promega). […] Cell lysis was monitored by trypan blue staining. […]

T1 sequence (P46937 whole entry): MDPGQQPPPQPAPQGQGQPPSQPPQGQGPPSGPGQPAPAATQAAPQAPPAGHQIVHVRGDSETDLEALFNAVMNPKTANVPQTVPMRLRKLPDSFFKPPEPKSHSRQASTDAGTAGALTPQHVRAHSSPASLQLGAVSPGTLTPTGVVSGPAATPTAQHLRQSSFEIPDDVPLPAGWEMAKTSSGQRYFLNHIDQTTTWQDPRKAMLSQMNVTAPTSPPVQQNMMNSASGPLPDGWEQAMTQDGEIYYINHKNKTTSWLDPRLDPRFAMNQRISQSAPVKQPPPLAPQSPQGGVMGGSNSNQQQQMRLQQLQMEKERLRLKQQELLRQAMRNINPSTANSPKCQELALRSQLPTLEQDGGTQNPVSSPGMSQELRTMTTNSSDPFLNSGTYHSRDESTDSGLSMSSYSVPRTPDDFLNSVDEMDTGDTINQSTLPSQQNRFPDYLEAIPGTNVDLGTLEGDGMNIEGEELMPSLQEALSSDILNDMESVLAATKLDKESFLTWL

COc1ccc(-c2cc(-c3ccccc3)nc3c2CC(=O)Nc2ccccc2-3)cc1OC [NSC682769]
Kd: 738 nM
